From patent US20110027348A1, “COMPOSITION AND METHOD INHIBITING INFLAMMATION” (priority 2007, published 2011)

Experiments:
TNF-alpha = assay: LPS-evoked immunogenic inflammation, TNF-alpha levels in monocyte/macrophage culture (Example I/1); format: cell-based; details: RAW 264,7 culture, control 0%
Method: The purpose of this experimental model was to measure inhibitory influence of omega 3 fatty acids, vitamin E and CoQ10 separately and in combination, using methods disclosed in literature (J. Surg Res. 2002 September; 107(1):135-139). For evoking inflammation bacterial endotoxin (LPS) was used and changes in levels of a proinflammatory cytokin, TNF-alpha were measured in a monocyte/macrophage (RAW 264,7) culture. It is clear that both combinations show inhibition of inflammation, the 3 member combination a considerably higher one.

[1] = tested on: neurogenic inflammation evoked by capsaicin; assay: Capsaicin-evoked neurogenic inflammation in newborn rats (Example I/2); format: in vivo, Sprague Dawley rats
Method: Neurogenic inflammation was evoked in newborn ([…]) Sprague Dawley rats by intraperitoneal administration of capsaicin (50 mg/kg of body mass) as described in the literature (Acta Physiol. Hung. 1987; 69(3-4):323-32). Twenty-four hours before capsaicin injection 10 ml intravenous infusions each of CoQ10, or omega 3+vitamin E, or omega 3+vitamin E+CoQ10 were applied. Each of these combinations contained 1.0 g omega 3, 10 mg vitamin E and 10 mg CoQ10. […] Hypotensive shock and subsequent death were prevented by pre-treatment with omega 3+vitamin E in 26% and in the omega 3+vitamin E+CoQ10 in 64%, while in the control group only 22% survived. […] Six weeks after the capsaicin injection, corneal transparency and sensitivity returned to normal in the pre-treated groups, while in the control group reduced transparency and sensitivity were observed.

[2] = tested on: retinal pigment epithelial (RPE) cells; assay: Retinal cell culture, growth and differentiation of RPE cells (Example I/6); format: cell-based, Wistar rats; details: 7 day stage, morphometric analysis, control 0%
Method: The aim of this study was to reveal the influence of omega 3 fatty acids, Vitamin E, CoQ10 and LB separately or in combination on the development and differentiation of retinal cells in culture (in vitro). Retinas of newborn (1-2 days) Wistar rats were isolated. and cultured as described in our previous paper (Int. J. Dev. Neurosc. 1998 August; 16(5):423-32). In six different combinations, the culture medium contained 10 g omega 3 fatty acids, 100 mg vitamin E, 100 mg CoQ10 and 0.05 microgram LB per 100 ml. At the 7 day stage size and differentiation of retinal pigment epithelial (RPE) cells were determined by morphometric analysis, as described in the cited work.

SMILES	Decrease in proinflammatory cytokine levels in immunogenic inflammation: TNF-alpha (TNF-alpha) [%]	Neurogenic inflammation, acute features (survival; hypotensive shock and subsequent death prevented) ([1]; 10 ml i.v. infusion 24 hours before capsaicin 50 mg/kg i.p., control 22%) [%]	Neurogenic inflammation, chronic features ([1]; 10 ml i.v. infusion 24 hours before capsaicin, six weeks after capsaicin, control 20%) [%]	RPE differentiation [2] [%]	RPE growth [2] [%]
COC1=C(OC)C(=O)C(C/C=C(\C)CC/C=C(\C)CC/C=C(\C)CC/C=C(\C)CC/C=C(\C)CC/C=C(\C)CC/C=C(\C)CC/C=C(\C)CC/C=C(\C)CCC=C(C)C)=C(C)C1=O [CoQ10, ubiquinone 10]	−3	22	25	3	1
CC(=O)Oc1ccccc1C(=O)O [aspirin]	−21				
